The values that follow come from ChEMBL document CHEMBL3860080, “Development of BCR-ABL degradation inducers via the conjugation of an imatinib derivative and a cIAP1 ligand” (Bioorg Med Chem Lett, 2016).

Each structure is given as a SMILES string. The source made the active and inactive calls. The calls are words filed in the database; no cut-off is given here.

A short description of data set [1]: Effect on BCR-ABL protein levels in human K562 cells assessed as BCR-ABL to beta-tubulin ratio at 100 uM after 8 hrs in presence of imatinib by Western blot analysis relative to control. The following applies: k562, 8 h. Type of data set: ADME, cell-based.
For data set [2], the target named is T1, Bcr/Abl fusion protein (Homo sapiens) (UniProt P00519+P11274). Put plainly: Inhibition of BCR-ABL signaling pathway in human K562 cells assessed as suppression of CrkL phosphorylation at 100 uM after 8 hrs in presence of imatinib by Western blot analysis. Type of data set: cell-based. In general terms: Immunoblotting shows a protein as a band on a membrane.
T1 sequence (P00519 whole entry, looked up, the tested form may be a part): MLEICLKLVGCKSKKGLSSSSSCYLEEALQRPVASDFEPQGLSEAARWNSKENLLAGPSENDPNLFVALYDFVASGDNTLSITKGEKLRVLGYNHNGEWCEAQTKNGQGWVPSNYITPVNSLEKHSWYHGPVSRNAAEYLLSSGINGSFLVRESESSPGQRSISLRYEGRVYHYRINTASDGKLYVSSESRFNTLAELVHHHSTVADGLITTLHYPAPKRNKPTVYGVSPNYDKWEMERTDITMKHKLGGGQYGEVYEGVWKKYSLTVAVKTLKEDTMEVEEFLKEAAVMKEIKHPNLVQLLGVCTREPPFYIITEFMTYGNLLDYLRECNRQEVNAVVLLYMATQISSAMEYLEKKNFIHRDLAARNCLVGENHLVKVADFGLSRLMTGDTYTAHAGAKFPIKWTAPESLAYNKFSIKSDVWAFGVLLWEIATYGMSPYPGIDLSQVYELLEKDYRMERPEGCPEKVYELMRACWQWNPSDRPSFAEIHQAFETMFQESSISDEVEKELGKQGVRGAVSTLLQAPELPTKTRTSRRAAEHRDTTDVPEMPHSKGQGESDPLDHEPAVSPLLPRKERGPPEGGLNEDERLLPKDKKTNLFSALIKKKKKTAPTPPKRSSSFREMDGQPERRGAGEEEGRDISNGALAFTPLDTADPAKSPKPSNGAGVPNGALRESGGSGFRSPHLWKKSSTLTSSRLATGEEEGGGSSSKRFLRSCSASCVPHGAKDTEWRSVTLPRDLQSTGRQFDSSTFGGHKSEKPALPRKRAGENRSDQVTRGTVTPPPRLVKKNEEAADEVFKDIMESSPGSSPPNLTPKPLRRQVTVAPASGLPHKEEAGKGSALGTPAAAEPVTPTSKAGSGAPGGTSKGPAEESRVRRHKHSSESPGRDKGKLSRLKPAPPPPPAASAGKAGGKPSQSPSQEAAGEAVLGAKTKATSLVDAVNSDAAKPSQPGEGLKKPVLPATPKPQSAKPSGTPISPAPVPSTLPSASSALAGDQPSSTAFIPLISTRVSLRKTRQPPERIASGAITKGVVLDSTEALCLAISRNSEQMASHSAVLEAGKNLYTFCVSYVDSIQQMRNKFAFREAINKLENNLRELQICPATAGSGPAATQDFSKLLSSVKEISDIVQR
T1 sequence (P11274 whole entry, looked up, the tested form may be a part): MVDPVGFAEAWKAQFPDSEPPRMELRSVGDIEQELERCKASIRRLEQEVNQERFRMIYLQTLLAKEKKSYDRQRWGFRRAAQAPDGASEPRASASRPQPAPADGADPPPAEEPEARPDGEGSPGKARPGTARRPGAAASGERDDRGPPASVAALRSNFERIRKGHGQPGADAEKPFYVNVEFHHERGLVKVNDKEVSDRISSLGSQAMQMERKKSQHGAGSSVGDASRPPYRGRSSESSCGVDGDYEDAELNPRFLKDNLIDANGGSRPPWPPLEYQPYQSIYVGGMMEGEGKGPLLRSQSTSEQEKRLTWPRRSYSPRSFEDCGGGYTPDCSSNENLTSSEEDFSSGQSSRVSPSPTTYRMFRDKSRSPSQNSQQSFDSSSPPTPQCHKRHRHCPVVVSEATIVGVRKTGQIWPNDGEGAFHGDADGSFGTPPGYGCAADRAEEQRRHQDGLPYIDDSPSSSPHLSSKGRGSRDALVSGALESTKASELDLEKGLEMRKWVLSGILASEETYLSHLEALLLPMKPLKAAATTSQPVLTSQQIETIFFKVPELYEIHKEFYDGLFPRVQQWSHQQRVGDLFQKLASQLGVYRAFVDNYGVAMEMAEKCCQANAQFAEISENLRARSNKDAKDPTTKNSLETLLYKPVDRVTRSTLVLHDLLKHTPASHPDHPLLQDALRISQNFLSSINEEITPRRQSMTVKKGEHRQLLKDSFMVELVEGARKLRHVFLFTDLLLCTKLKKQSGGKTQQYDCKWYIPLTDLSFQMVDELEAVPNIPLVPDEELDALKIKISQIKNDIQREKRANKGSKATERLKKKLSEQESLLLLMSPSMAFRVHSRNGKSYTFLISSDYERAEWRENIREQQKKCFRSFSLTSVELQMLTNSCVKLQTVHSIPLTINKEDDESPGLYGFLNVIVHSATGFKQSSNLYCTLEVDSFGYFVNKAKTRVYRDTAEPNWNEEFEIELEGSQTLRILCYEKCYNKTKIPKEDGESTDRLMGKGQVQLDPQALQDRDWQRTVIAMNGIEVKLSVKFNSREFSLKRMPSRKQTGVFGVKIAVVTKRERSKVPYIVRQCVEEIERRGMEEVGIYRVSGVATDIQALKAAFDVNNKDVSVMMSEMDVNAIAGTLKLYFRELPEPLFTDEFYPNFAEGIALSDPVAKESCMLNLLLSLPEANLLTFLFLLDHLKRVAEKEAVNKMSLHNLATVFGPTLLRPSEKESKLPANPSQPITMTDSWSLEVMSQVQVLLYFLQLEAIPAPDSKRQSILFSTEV

Data set [3] addresses T1, Bcr/Abl fusion protein (Homo sapiens). Kind of data set: Inhibition of BCR-ABL signaling pathway in human K562 cells assessed as suppression of STAT5 phosphorylation at 100 uM after 8 hrs in presence of imatinib by Western blot analysis. It is filed as cell-based.
Data set [4] shares this target. Put plainly: Inhibition of BCR-ABL phosphorylation in human K562 cells at 100 uM after 8 hrs in presence of imatinib by Western blot analysis. It is filed as cell-based.
Data set [5] in a line: Cytotoxicity against human K562 cells assessed as cell growth at 30 to 100 uM after 24 hrs by cell counting kit-8 assay relative to control. It is filed as functional. For orientation: Tetrazolium dyes change colour on reduction, which living cells bring about.
The target in data set [6] is T2, Baculoviral IAP repeat-containing protein 2/Tyrosine-protein kinase ABL1/Breakpoint cluster region protein (Homo sapiens) (UniProt P00519+P11274+Q13490). Kind of data set: Induction of cIAP1-mediated BCR-ABL protein degradation in human K562 cells assessed as BCR-ABL to beta-tubulin ratio at 100 uM after 24 hrs by Western blot analysis relative to control. Type of data set: cell-based.
T2 sequence (P00519 whole entry, looked up): as the sequence (P00519 whole entry, looked up, the tested form may be a part) above
T2 sequence (P11274 whole entry, looked up): as the sequence (P11274 whole entry, looked up, the tested form may be a part) above
T2 sequence (Q13490 whole entry, looked up): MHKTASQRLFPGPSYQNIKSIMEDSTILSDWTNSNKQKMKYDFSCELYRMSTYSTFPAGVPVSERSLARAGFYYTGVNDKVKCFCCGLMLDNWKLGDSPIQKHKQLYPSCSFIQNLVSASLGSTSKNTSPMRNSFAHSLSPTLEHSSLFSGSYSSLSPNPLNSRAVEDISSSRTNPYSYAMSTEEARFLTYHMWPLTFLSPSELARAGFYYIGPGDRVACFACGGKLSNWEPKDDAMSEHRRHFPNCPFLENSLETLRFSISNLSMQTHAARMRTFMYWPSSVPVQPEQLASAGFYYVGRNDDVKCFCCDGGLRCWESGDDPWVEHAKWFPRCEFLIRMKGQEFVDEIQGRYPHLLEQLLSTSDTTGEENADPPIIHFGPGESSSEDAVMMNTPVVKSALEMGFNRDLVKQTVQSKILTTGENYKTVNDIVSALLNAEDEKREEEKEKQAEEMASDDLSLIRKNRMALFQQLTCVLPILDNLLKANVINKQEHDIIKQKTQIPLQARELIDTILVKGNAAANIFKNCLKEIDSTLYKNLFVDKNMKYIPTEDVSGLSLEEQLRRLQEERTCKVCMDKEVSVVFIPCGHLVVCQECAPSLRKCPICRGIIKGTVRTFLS

The target of data set [7] is T2, Baculoviral IAP repeat-containing protein 2/Tyrosine-protein kinase ABL1/Breakpoint cluster region protein (Homo sapiens). Kind of data set: Induction of cIAP1-mediated BCR-ABL protein degradation in human K562 cells assessed as BCR-ABL to beta-tubulin ratio at 30 uM after 24 hrs by Western blot analysis relative to control. It is filed as cell-based.
The target is the same in data set [8]. Put plainly: Induction of cIAP1-mediated BCR-ABL protein degradation in human K562 cells assessed as BCR-ABL to beta-tubulin ratio at 30 uM after 8 hrs by Western blot analysis relative to control. It is filed as cell-based.
Data set [9] shares this target. Put plainly: Induction of cIAP1-mediated BCR-ABL protein degradation in human K562 cells assessed as BCR-ABL to beta-tubulin ratio at 100 uM after 8 hrs by Western blot analysis relative to control. Type of data set: cell-based.
In data set [10] the target is T1, Bcr/Abl fusion protein (Homo sapiens). Put plainly: Inhibition of BCR-ABL signaling pathway in human K562 cells assessed as suppression of STAT5 phosphorylation at 100 uM after 8 hrs by Western blot analysis. Type of data set: cell-based.
The target is the same in data set [11]. Put plainly: Inhibition of BCR-ABL phosphorylation in human K562 cells at 100 uM after 8 hrs by Western blot analysis. Type of data set: cell-based.
The target is the same in data set [12]. Kind of data set: Inhibition of BCR-ABL signaling pathway in human K562 cells assessed as suppression of CrkL phosphorylation at 100 uM after 8 hrs by Western blot analysis. Type of data set: cell-based.
The target of data set [13] is T2, Baculoviral IAP repeat-containing protein 2/Tyrosine-protein kinase ABL1/Breakpoint cluster region protein (Homo sapiens). Put plainly: Induction of cIAP1-mediated BCR-ABL protein degradation in human K562 cells after 8 hrs by Western blot analysis. It is filed as cell-based.
Data set [14] in a line: Effect on BCR-ABL protein levels in human K562 cells assessed as BCR-ABL to beta-tubulin ratio at 100 uM after 8 hrs by Western blot analysis relative to control. It is filed as ADME, cell-based. The conditions noted are these: k562, 8 h.
Another data set relates to K562. Put plainly: Cytotoxicity against human K562 cells assessed as cell growth inhibition at 30 to 100 uM after 24 hrs by cell counting kit-8 assay. Type of data set: functional, cell-based.

On to `COC(=O)[C@H](CC(C)C)NC(=O)[C@@H](O)[C@H](N)Cc1ccccc1` [BESTATIN METHYL ESTER], for which the Activity in [1] was found to be 99%. For the same molecule, the inhibition entry in data set [2], in data set [3] and in data set [4] was “Active” each time.

As for `Cc1ccc(NC(=O)c2ccc(CNC(=O)CCCCNC(=O)[C@H](CC(C)C)NC(=O)[C@@H](O)[C@H](N)Cc3ccccc3)cc2)cc1Nc1nccc(-c2cccnc2)n1.Cl`, the Activity amounted to 100% in [5]; 81% in [6]; 105% in data set [7]; 121% in data set [8]; 113% in data set [9].

For `Cc1ccc(NC(=O)c2ccc(CNC(=O)CCCCCCNC(=O)[C@H](CC(C)C)NC(=O)[C@@H](O)[C@H](N)Cc3ccccc3)cc2)cc1Nc1nccc(-c2cccnc2)n1.Cl`, the inhibition entry in data set [10], in [11] and in data set [12] was “Active” in each case. The Activity is 3% in [6]; 23% in data set [7]; “Dose-dependent effect” in data set [13]; 59% in data set [8]; 17% in [9]; 27% in data set [14]. Besides, in the data set on K562, the “growth inhibition (GI)” value is “Active”.

As for `Cc1ccc(NC(=O)c2ccc(CNC(=O)CCCCCCCCCCNC(=O)[C@H](CC(C)C)NC(=O)[C@@H](O)[C@H](N)Cc3ccccc3)cc2)cc1Nc1nccc(-c2cccnc2)n1`, the Activity is 8% in data set [6], 14% in [7], 77% in data set [8] and 94% in data set [9]. Moreover, the “growth inhibition (GI)” value in the data set on K562 was “Active”.
